Here are results for 4 molecules from patent US5854388A, “Angiotensin IV peptides and receptor” (Washington State University Research Foundation, priority 1994, dated 1998).

For data set [1] the following is noted: in vivo; cited from earlier work.
Data set [2] deals with T1, AT4 receptor (Bos taurus, UniProt F1N1Q8).
T1 sequence (F1N1Q8 1-1022): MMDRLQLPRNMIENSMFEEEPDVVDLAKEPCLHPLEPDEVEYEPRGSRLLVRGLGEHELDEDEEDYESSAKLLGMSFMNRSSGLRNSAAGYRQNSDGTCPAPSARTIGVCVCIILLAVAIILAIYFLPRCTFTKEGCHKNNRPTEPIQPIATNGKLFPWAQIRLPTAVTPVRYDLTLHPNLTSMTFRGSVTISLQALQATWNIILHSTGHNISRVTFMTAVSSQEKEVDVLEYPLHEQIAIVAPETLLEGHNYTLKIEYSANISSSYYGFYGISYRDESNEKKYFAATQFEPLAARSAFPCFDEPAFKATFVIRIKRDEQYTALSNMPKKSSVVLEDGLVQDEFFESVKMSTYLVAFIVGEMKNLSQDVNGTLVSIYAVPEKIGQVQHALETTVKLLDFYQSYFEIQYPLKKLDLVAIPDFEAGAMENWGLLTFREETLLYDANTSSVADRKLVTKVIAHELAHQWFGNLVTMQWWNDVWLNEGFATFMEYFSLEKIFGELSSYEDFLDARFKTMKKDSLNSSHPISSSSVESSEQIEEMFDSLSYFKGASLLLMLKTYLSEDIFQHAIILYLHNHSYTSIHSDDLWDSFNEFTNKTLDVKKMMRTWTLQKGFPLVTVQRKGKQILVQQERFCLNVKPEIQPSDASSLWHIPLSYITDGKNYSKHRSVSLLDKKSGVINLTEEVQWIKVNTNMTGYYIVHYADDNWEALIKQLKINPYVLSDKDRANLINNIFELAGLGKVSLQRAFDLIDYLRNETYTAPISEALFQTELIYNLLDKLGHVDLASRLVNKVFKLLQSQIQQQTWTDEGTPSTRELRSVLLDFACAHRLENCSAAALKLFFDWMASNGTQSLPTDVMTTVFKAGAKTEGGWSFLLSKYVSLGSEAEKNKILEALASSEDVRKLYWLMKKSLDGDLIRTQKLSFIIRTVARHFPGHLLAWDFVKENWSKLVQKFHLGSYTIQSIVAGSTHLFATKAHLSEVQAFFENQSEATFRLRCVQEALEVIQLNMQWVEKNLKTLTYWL
Nature of the data set: 125I-AIV binding and competition, bovine adrenal cortical membranes.

Data set [3] concerns the target T1, AT4 receptor. As to the kind of experiment: 125I-AIV binding and competition, coronary venular endothelial cell (CVEC) membranes. Conditions: for Ki: read-out: Ki. More on the design: species or system bovine.
The conditions of data set [4]: arterial and venous blood in man; cited from earlier work.
Data set [5] has as its target T1, AT4 receptor. Nature of the data set: 125I-AIV binding and competition, solubilized bovine adrenal cortical receptor.
The nature of data set [6]: Stability of angiotensin peptides in binding buffer (reverse phase HPLC). It counts as physicochemical. The following applies: 4 h at 37° C. Here is the method:
Binding studies were carried out in a buffer (below) containing an extensive cocktail of inhibitors that was designed to minimize metabolism of both the receptor and the test ligand, i.e., the buffer contained 5 mM EDTA, 0.2% BSA, […] Bestatin, 50 μM Plummer's inhibitor, and 100 μM PMSF.

The target in data set [7] is T2, AT1 receptor (AII receptor) (Bos taurus, UniProt P25104).
T2 construct: from tissue; host or cells: bovine adrenal cortex membranes
T2 sequence (P25104 1-359): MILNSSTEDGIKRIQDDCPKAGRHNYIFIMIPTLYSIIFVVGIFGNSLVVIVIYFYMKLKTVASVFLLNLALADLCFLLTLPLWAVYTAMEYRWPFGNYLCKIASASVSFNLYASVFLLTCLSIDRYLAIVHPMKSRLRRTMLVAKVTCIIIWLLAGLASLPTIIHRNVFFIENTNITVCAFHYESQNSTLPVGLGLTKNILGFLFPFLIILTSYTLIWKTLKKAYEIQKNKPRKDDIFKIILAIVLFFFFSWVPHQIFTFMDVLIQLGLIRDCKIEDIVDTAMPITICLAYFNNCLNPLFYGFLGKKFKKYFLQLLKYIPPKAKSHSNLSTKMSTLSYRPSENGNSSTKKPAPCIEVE
It counts as binding, bovine. Conditions: for Bmax: equilibrium binding.

The target of data set [8] is T3, AT4 receptor (Oryctolagus cuniculus, UniProt G1SFU4).
T3 sequence (G1SFU4 1-1025): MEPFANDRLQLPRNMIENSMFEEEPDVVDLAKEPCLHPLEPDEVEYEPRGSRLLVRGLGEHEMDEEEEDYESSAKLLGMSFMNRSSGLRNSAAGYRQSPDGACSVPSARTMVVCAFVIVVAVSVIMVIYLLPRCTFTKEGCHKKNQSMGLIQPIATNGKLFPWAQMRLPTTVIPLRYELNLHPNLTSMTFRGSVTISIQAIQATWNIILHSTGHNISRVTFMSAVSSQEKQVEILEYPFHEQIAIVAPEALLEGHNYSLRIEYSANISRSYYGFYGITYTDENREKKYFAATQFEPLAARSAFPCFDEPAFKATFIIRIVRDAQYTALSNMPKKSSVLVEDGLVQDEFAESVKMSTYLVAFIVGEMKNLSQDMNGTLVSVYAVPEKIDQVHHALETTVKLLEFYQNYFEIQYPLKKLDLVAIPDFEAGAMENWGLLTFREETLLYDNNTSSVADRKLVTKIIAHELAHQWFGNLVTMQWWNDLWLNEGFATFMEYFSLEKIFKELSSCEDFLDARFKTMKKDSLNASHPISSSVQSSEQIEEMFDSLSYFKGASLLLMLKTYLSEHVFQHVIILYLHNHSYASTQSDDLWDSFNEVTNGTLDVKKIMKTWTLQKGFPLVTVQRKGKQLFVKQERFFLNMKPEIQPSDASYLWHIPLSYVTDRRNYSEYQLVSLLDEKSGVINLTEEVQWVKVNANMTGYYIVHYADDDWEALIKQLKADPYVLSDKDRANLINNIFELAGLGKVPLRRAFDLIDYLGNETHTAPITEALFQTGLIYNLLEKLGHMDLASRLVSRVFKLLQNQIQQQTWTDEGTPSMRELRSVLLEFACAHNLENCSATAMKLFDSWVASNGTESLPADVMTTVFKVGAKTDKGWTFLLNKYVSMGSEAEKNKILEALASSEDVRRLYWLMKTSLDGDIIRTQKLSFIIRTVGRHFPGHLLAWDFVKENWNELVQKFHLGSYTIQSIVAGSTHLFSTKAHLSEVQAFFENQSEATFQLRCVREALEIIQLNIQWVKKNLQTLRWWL
As to the kind of experiment: 125I-AIV binding and competition, rabbit heart P2 membranes. Conditions: competition of 0.5 nM 125I-AIV, 120 min, 37° C.

In data set [9] the target is T4, AT4 receptor (Cavia porcellus, UniProt H0VNM7).
T4 sequence (H0VNM7 1-1025): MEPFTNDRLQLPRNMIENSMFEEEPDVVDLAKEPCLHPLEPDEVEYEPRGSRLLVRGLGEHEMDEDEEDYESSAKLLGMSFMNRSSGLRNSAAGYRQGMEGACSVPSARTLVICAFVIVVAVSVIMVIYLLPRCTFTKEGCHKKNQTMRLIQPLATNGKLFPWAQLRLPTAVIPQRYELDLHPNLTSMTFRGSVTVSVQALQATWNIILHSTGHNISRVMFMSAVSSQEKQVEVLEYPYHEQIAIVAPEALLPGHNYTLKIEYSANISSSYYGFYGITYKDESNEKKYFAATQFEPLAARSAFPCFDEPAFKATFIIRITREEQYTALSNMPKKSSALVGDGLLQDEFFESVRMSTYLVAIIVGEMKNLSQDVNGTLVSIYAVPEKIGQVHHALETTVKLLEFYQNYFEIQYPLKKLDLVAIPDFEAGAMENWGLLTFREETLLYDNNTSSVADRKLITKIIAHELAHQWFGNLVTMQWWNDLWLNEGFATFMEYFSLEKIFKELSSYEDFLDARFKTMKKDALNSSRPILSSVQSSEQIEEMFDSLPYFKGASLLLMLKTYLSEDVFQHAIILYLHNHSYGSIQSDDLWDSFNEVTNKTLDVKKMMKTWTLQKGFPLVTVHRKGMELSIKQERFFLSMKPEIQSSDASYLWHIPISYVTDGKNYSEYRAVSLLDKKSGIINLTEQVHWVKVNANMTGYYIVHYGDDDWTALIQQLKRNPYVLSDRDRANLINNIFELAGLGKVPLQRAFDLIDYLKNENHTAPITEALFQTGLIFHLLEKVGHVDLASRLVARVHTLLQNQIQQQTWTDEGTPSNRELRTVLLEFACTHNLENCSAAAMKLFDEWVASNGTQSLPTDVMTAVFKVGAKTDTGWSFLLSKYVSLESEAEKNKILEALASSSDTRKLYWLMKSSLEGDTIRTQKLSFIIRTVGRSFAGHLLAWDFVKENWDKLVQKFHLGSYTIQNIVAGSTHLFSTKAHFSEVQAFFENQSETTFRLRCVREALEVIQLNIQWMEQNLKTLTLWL
As to the kind of experiment: 125I-AIV binding and competition, guinea pig hippocampus membranes. The following applies: competition of 0.6 nM 125I-AIV.

The subject of a further data set is rat kidney. As to the kind of experiment: Renal cortical blood flow (laser doppler) and arterial pressure after infusion into the renal artery. It counts as in vivo.
The mark [10] stands for this setting: read-out: 125I-AIV Binding (Ki), competition.

Read-outs that look alike come from different tables or passages of the source.

For the molecule `CC[C@H](C)[C@H](NC(=O)[C@H](Cc1ccc(O)cc1)NC(=O)[C@@H](NC(=O)[C@@H](N)CCCNC(=N)N)C(C)C)C(=O)N[C@@H](Cc1c[nH]cn1)C(=O)N1CCC[C@H]1C(=O)N[C@@H](Cc1ccccc1)C(=O)O` [AIII, Arg1 Val2 Tyr3 Ile4 His5 Pro6 Phe7, reference compound], the “metabolized during transit through the kidney” value in data set [1] is given as 89%. Further, the “fold less active than AIV ligand” value at AT4 receptor [2] (density-gradient-purified heat-treated membranes) is on record as “about 52 fold”; at AT4 receptor [5] it was “approximately 29 fold”. The Ki is 29.3 nM at AT4 receptor [2] (density-gradient-purified heat-treated membranes, read-out: apparent affinity (Ki)); greater than 14.5 nM on AT4 receptor [2] (setting [10]); 23.3 ± 3.4 nM at AT4 receptor [3] (competition of 0.5 nM 125I-AIV). In addition, the half-lives in [4] was 2.0 min. Besides, on AT4 receptor [5], the “times less effective than AIV in competing binding” value is on record as “approximately 100 times”. Besides, the “hydrolysis in binding buffer” value in [6] was “less than 10%”.
Regarding “Asp1 Arg2 Val3 Tyr4 Ile5 His6 Pro7 Phe8His9 Leu10 (DRVYIHPFHL) [AI]”, in [1], the “metabolized during transit through the kidney” value was 72-76%. In addition, in data set [6], the “hydrolysis in binding buffer” value is on record as “less than 10%”.
In the case of CGP 42112A, the Ki on AT4 receptor [2] (setting [10]) was greater than 100000 nM; on AT4 receptor [3] (unit inferred), greater than 100000 nM; in data set [7] (competition), greater than 100000 nM; on AT4 receptor [8], greater than 1000 nM; on AT4 receptor [9] it was greater than 100000 nM.
Consider SRVYIHPI [Sar1, Ile8 -AII], for which, in the data set on rat kidney (1 nmol/min, 10 min preinfusion), the “average change in AIV-induced blood flow with preinfusion” value is listed as less than 3%. In the data set on rat kidney (rat, in vivo), the “effect of preinfusion on blood flow response to another ligand” value is “completely blocked the AII effect while having no effect on AIV”. Also, the Ki in the data set with AT4 receptor [2] (setting [10]) is greater than 1000 nM; with AT4 receptor [3] (competition of 0.5 nM 125I-AIV) it was 261 ± 89.1 nM; in the data set with AT4 receptor [8], greater than 1000 nM; in the data set with AT4 receptor [9], greater than 1000 nM. Besides, the “increase in Ki (decrease in affinity) compared with AIV” value in the data set with AT4 receptor [3] is listed as 200 fold. Moreover, the “Hill Coeff.” value in data set [7] is reported as 1.00 ± .03. For the same molecule, the Bmax in data set [7] (listed as 125I Sar1, Ile8 -Ang II) is given as 1.03 ± .26 pmol/mg prot; in data set [7] (listed as 125I-Sar1,Ile8 -AII), 1.03±0.26 pmol/mg prot. In addition, the dissociation constant Kd (commonly the free concentration of one partner at which half of the binding sites on the other are occupied at equilibrium, for simple one-to-one binding) in [7] (read-out: Kd (calculated from kinetic constants)) is 0.225 nM.
